Measured values: ChEMBL document CHEMBL1201862, “PubChem BioAssay data set” (2004)
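How tested: cells in 96-well plates exposed to compound for 48 hours at five concentrations. GI50 marks 50% less growth.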 Activity calls are given as the source filed them. No stated cut-off is given here; in the data, active = GI50 up to about 1.1 µM and inactive = higher.

Experiments:
Experiment in all cases: inhibition of tumour cell growth, NCI panel, 48 h
TK-10 = tested on: TK-10
EKVX = tested on: EKVX
HL-60 = tested on: HL-60
SW-620 = tested on: SW-620
SR = tested on: SR
OVCAR-3 = tested on: OVCAR-3
SK-MEL-2 = tested on: SK-MEL-2
LOX IMVI = tested on: LOX IMVI
SK-MEL-5 = tested on: SK-MEL-5
KM12 = tested on: KM12
RXF 393 = tested on: RXF 393
HOP-92 = tested on: HOP-92
MOLT-4 = tested on: MOLT-4
UACC-257 = tested on: UACC-257
HCT-116 = tested on: HCT-116
OVCAR-4 = tested on: OVCAR-4
SNB-75 = tested on: SNB-75

Measured: GI50

CC(=O)Oc1ccc2c(=O)c(C(C)=O)coc2c1
inactive: TK-10 > 100 µM | EKVX > 100 µM | HL-60 > 100 µM | SW-620 > 100 µM | SR > 100 µM | OVCAR-3 > 100 µM | SK-MEL-2 > 100 µM | LOX IMVI 81.8 µM | SK-MEL-5 > 100 µM | KM12 > 100 µM | RXF 393 > 100 µM | HOP-92 79.6 µM | MOLT-4 > 100 µM | UACC-257 > 100 µM | HCT-116 > 100 µM | OVCAR-4 > 100 µM

CC(=O)O[C@]1(C)CCC2C(C)C(=O)OC2C2C(C)[C@@H](O)CC21 (stereo not given in full)
inactive: TK-10 42.6 µM | EKVX 67.5 µM | HL-60 14.2 µM | SW-620 15.8 µM | SR 3.56 µM | OVCAR-3 12.9 µM | SK-MEL-2 20.3 µM | LOX IMVI 17.9 µM | SK-MEL-5 32.1 µM | KM12 49.8 µM | RXF 393 32.3 µM | HOP-92 26.4 µM | SNB-75 60.5 µM | UACC-257 > 100 µM | HCT-116 27.2 µM | OVCAR-4 26.2 µM

O=c1[nH]n2c(=O)cc[nH]c2c1-c1nnns1
inactive: TK-10 > 100 µM | EKVX > 100 µM | HL-60 > 100 µM | SW-620 > 100 µM | SR > 100 µM | OVCAR-3 > 100 µM | SK-MEL-2 > 100 µM | LOX IMVI > 100 µM | SK-MEL-5 > 100 µM | KM12 > 100 µM | RXF 393 > 100 µM | HOP-92 > 100 µM | MOLT-4 > 100 µM | SNB-75 > 100 µM | HCT-116 > 100 µM | OVCAR-4 > 100 µM

Cc1ccc(/C=N/C23CC4CC(CC(C4)C2)C3)cc1
inactive: TK-10 > 100 µM | EKVX > 100 µM | HL-60 > 100 µM | SW-620 > 100 µM | SR > 100 µM | OVCAR-3 > 100 µM | SK-MEL-2 85.7 µM | LOX IMVI > 100 µM | SK-MEL-5 84.1 µM | KM12 > 100 µM | RXF 393 > 100 µM | MOLT-4 > 100 µM | SNB-75 44.8 µM | UACC-257 > 100 µM | HCT-116 > 100 µM | OVCAR-4 > 100 µM

NCCn1cnc2nc(NC(=O)c3ccccc3)[nH]c(=O)c21
inactive: TK-10 > 100 µM | EKVX > 100 µM | HL-60 > 100 µM | SW-620 > 100 µM | SR > 100 µM | OVCAR-3 > 100 µM | SK-MEL-2 > 100 µM | LOX IMVI > 100 µM | KM12 > 100 µM | RXF 393 > 100 µM | HOP-92 > 100 µM | MOLT-4 > 100 µM | SNB-75 45.7 µM | UACC-257 > 100 µM | HCT-116 > 100 µM

C/C(=N\NC(N)=O)c1sc(-c2nc(C)c(/C(C)=N/NC(N)=O)s2)nc1C
inactive: TK-10 > 100 µM | EKVX 21.5 µM | HL-60 40 µM | SR 22.6 µM | OVCAR-3 > 100 µM | SK-MEL-2 > 100 µM | LOX IMVI > 100 µM | SK-MEL-5 > 100 µM | KM12 > 100 µM | RXF 393 > 100 µM | HOP-92 > 100 µM | MOLT-4 > 100 µM | SNB-75 > 100 µM | UACC-257 > 100 µM | HCT-116 > 10 µM | OVCAR-4 > 100 µM

COc1cccc(NC(=O)CSc2nnc(-c3ccc(/N=C\c4ccc(Cl)cc4)cc3)o2)c1
inactive: TK-10 30.6 µM | EKVX 36.7 µM | HL-60 27.7 µM | SW-620 20.4 µM | SR 28.2 µM | SK-MEL-2 19 µM | LOX IMVI 20.2 µM | SK-MEL-5 18.6 µM | KM12 14.2 µM | RXF 393 18.3 µM | MOLT-4 23.4 µM | SNB-75 23.8 µM | UACC-257 > 10 µM | HCT-116 17.2 µM | OVCAR-4 37.4 µM

CCC(O)C1Cc2c(C)cc3c(c2O1)C(=O)c1ccccc1C3=O (stereo not given)
inactive: TK-10 85.3 µM | EKVX 62.4 µM | HL-60 17.9 µM | SW-620 52 µM | SR 33.5 µM | OVCAR-3 29.4 µM | SK-MEL-2 44.4 µM | LOX IMVI 27.7 µM | SK-MEL-5 44.7 µM | KM12 25.8 µM | HOP-92 29.4 µM | MOLT-4 27.4 µM | SNB-75 31.8 µM | UACC-257 69 µM | HCT-116 40.6 µM | OVCAR-4 33.3 µM

c1nc2cscc2c2cscc12
inactive: TK-10 > 100 µM | HL-60 > 100 µM | SW-620 > 100 µM | SR > 100 µM | OVCAR-3 > 100 µM | SK-MEL-2 > 100 µM | LOX IMVI > 100 µM | KM12 > 100 µM | RXF 393 > 100 µM | HOP-92 14.7 µM | MOLT-4 > 100 µM | UACC-257 > 100 µM | HCT-116 > 100 µM | OVCAR-4 > 100 µM
